The record followed here is the METLIN SMRT retention time set (Domingo-Almenara et al. 2019).

Structures are written as SMILES.

This series in a line: gradient 5% acetonitrile 3 min, to 50% in 2 min, to 85% in 15 min, held 3 min, 100 µL/min. Particulars: column: Zorbax Extend-C18 2.1 x 50 mm; eluents: water / acetonitrile, 0.1% formic acid. In outline:
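Over 3 months, pure standards in mixtures of ~100 molecules were run by HPLC coupled to a quadrupole time-of-flight mass spectrometer in positive and negative ionization mode. The column was a Zorbax Extend-C18 (2.1 × 50 mm, 1.8 μm) at 100 μL/min, eluted with water and acetonitrile each holding 0.1% formic acid, with 40 μL dead and 900 μL dwell volumes. Retention time was determined from adduct peaks chosen by software and checked manually.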
The compound `CC(C)C(=O)N1CCc2c(c(C(=O)NCc3ccc4c(c3)OCO4)nn2C)C1` showed an RP-LC retention time of 708 s.
Under `Cc1c(NC(=O)C2CCN(S(=O)(=O)Cc3ccccc3)CC2)c(=O)n(-c2ccccc2)n1C` stands 672 s.
In turn, `CCOC(=O)C1=C(C)NC2=C(C(=O)c3ccccc32)C1c1cccc(OC)c1` (stereo not drawn) showed an RP-LC retention time of 988 s.
Next, `O=C(c1ccc(F)cc1Cl)N1CCc2nc(-c3ccc(Cl)cc3)ncc2C1`: 1160 s.
`Cc1ccc(Oc2nccnc2N2CCCC(C(=O)Nc3ccc(N4CCOCC4)cc3)C2)cc1` (stereo not drawn) gave an RP-LC retention time of 956 s.
Compound `CC1=C(c2ccc(C)cc2)S(=O)(=O)N=C1N1CCCN(C(=O)c2ccccc2)CC1` showed an RP-LC retention time of 837 s.
`Cc1ccccc1CNC(=O)C1CC(=O)N(c2ccc3c(c2)CCN3C(=O)C2CC2)C1` (stereo not drawn): the RP-LC retention time came to 702 s.
Take `O=C(NCC1CC1)C1CCN(C(=O)c2ncn3c2COC(c2ccccc2)C3)CC1` (stereo not drawn): the RP-LC retention time is 681 s.
Under `Cc1sc(NC(=O)COc2ccc(Cl)cc2)nc1-c1ccc2c(c1)N(C)C(=O)CO2` stands 1040 s; under `Cc1ccc2nc(-c3cccc(S(=O)(=O)N4CCOCC4)c3)cn2c1`, 605 s; under `CC(=O)N1c2ccc(S(=O)(=O)N3CCCCC3)cc2CC1C(=O)NC1CCCCC1` (stereo not drawn), 905 s.
Under `COC1CN(c2cccc(F)c2)C12CCN(CC1CCCCC1)CC2` (stereo not drawn) stands 806 s.
For `CCCn1c(C)cnc1CC1CCN(S(=O)(=O)c2ccc3c(c2)CCC3)C1` (stereo not drawn), the RP-LC retention time was determined as 730 s.
Compound `CC(=O)Nc1cc(C(=O)NCc2nn(Cc3ccccc3)c3ccccc23)ccc1C` returned an RP-LC retention time of 794 s.
With `Cc1ccc(CNS(=O)(=O)c2c(C)nc3sc(C)nn23)o1`, the RP-LC retention time was determined as 710 s.
`COc1ccc(-c2nn(CCCC(=O)N3CCN(c4ccccn4)CC3)c(=O)c3noc(C)c23)cc1` gave an RP-LC retention time of 636 s.
For the compound `CCOc1ccc(N2C=C(C(=O)OC)S(=O)(=O)c3cc(F)ccc32)cc1`, the RP-LC retention time came to 924 s.
Compound `CCOC(=O)c1ccc(S(=O)(=O)NCCCn2nc(-c3ccncc3)ccc2=O)cc1` returned an RP-LC retention time of 592 s.
In turn, `CCOC(=O)c1noc2ncnc(NCCCN3CCN(c4cc(C)ccc4C)CC3)c12` showed an RP-LC retention time of 738 s.
`O=C(Nc1ccc(-c2nc(-c3ccccc3)co2)cc1)c1ccc(Br)o1` displayed an RP-LC retention time of 1190 s.
As for `Cc1cc(-n2nnc(C(=O)N3CCC(N4CCCCC4)CC3)c2-c2ccncc2)ccc1F`, the RP-LC retention time was 602 s.
Compound `COc1ccc(N2CCN(C(=O)C3(CCO)CC34CCOCC4)CC2)cc1` (stereo not drawn) came in with an RP-LC retention time of 628 s.
Compound `Cc1ccnc(N2CCCC(C(=O)NCc3ccc(N(C)C)cc3)C2)n1` (stereo not drawn) returned an RP-LC retention time of 561 s.
As for `O=C(NCC1CCCO1)C1CCN(c2nnc(-c3ccccc3)o2)CC1` (stereo not drawn), the RP-LC retention time amounted to 649 s.
For the compound `CNC(=O)C1CCCN(c2nc3ncn(CC(=O)NCc4ccc(Cl)cc4)c(=O)c3s2)C1` (stereo not drawn), the RP-LC retention time amounted to 666 s.
Next, `CCc1cc(C(=O)NCCN2CCOCC2)nc2cc(-c3ccccn3)nn12`: 592 s.
In turn, `O=C(c1ccc2nc[nH]c2c1)N1CCN(c2cc(-c3cccs3)[nH]n2)CC1` yielded an RP-LC retention time of 594 s.
Under `O=C1CCN(Cc2ccc(F)cc2F)CCOCCN1` stands 561 s; under `NS(=O)(=O)C#Cc1ccccc1`, 729 s.
`CCCNc1cc(N2CCC(CCC(=O)NCc3ccc(C)cc3)CC2)ncn1`: the RP-LC retention time stood at 716 s.
In the case of `CSc1ccc(C2c3[nH]c4ccccc4c3CCN2C(=O)C2CC2)cc1` (stereo not drawn), the RP-LC retention time was found to be 1120 s.
Under `CCC(=O)NCc1nc2c(n1C)CN(S(=O)(=O)c1cccc(C(F)(F)F)c1)CC2` stands 591 s; under `Cn1c(=O)sc2cc(S(=O)(=O)N3CCC(C(=O)NCCC4=CCCCC4)CC3)ccc21`, 911 s; under `COc1ccc(Cl)cc1NC(=O)CSc1nc2nc(C)cc(C)n2n1`, 856 s.
`COc1ccc(NC(=O)CN2CCc3[nH]c4c(C)c(Cl)ccc4c(=O)c3C2)c(OC)c1` yielded an RP-LC retention time of 656 s.
Compound `COc1ccc2c(c1)C1(CCN(S(=O)(=O)c3ccc(C#N)cc3)C1)C(=O)N2C` (stereo not drawn) showed an RP-LC retention time of 880 s.
Turning to `C[C@H](Cc1ccccc1)Nc1ncnc2c1ncn2[C@@H]1O[C@H](CO)[C@H](O)C1O` (stereo partly drawn), the RP-LC retention time amounted to 696 s.
`O=c1n(CCc2ccccc2)nc2c(S(=O)(=O)N3CCN(c4ccc(F)cc4)CC3)cccn12` registered an RP-LC retention time of 989 s.
On to `Cn1c(=O)n(CC(=O)N2CCCCC2)c(=O)c2cnc(-c3ccc(Cl)cc3)nc21`, for which the RP-LC retention time stood at 1050 s.
`CN(CCC#N)C(=O)Cn1nc(Cc2cccnc2)c2ccccc2c1=O` showed an RP-LC retention time of 563 s.
Next, `O=C1Cc2c(-c3ccccc3)cc(-c3cccc(Cl)c3)nc2-c2ccccc2N1`: 1260 s.
For `CCCC(CCC)C(=O)NCCS(=O)(=O)N1CCN(c2ccccn2)CC1`, the RP-LC retention time turned out to be 594 s.
As to `CC1(C)C(=O)N(CC(=O)NCc2ccccc2Cl)c2ccccc21`, the RP-LC retention time amounted to 881 s.
Regarding `CCOc1ccc(N2C=C(C(=O)N3CCCC3)S(=O)(=O)c3ccc(F)cc32)cc1`, the RP-LC retention time was 872 s.
`CCOC(=O)C1CCc2sc(NC(=O)CNC(=O)c3ccc(=O)[nH]c3)nc21` (stereo not drawn): the RP-LC retention time was determined as 591 s.
The compound `C[C@@H]1c2ccccc2CCN1C(=O)Cc1ccccc1F` had an RP-LC retention time of 950 s.
Under `COCCN1CCC2(CC1)CN(Cc1cc(OC)ccc1OC)Cc1ccccc1O2` stands 597 s.
`Cc1ccc(-n2nc(N3CCCC(C(=O)NCc4ccc(N(C)C)cc4)C3)ccc2=O)cc1Cl` (stereo not drawn) registered an RP-LC retention time of 692 s.
The compound `CCCNC(=O)N1CCCC1c1nc(-c2cccc(Cl)c2)no1` (stereo not drawn) displayed an RP-LC retention time of 904 s.
Compound `CNC(=O)c1cc(-c2ccc(OC)cc2)n[nH]1` gave an RP-LC retention time of 583 s.
Under `O=C(CS(=O)(=O)c1ccc(Cl)cc1)Nc1nc(-c2ccc3c(c2)OCO3)cs1` stands 959 s.
Under `Cn1cc(C(=O)C(=O)N[C@H]2CN3CCC2CC3)c2ccccc21` stands 672 s; under `Cc1ccccc1CNC(=O)C1=C2CCCN2c2ccc(F)cc2S1(=O)=O`, 918 s; under `O=C(CCNc1c(-c2cccc(F)c2)nc2cnccn12)NCc1ccc2c(c1)OCO2`, 712 s.
The compound `CO[C@H]1C(=O)N(C2CCN(S(=O)(=O)c3cccnc3)CC2)[C@H]1c1ccncc1` had an RP-LC retention time of 579 s.
Regarding `CC(C)n1cnc(S(=O)(=O)N2CCC(C(=O)N3CCN(c4ccccc4F)CC3)CC2)c1`, the RP-LC retention time worked out at 807 s.
Next, `Cc1ccc(CN2CCN(C3CCN(S(=O)(=O)c4cc(F)ccc4C)CC3)C(=O)C2=O)cc1`: 920 s; `CCCn1cnc2cc(CNC(=O)Cc3ccsc3)ccc21`: 619 s; `O=S(=O)(Nc1ccc(Cn2cncn2)cc1)c1ccc(Cl)cc1`: 744 s.
On to `COc1cccc(COC(=O)C2=CN(Cc3ccccc3)S(=O)(=O)N=C2C)c1`, for which the RP-LC retention time stood at 1090 s.
Regarding `O=C(NCC1CCCO1)C1CCN(S(=O)(=O)c2ccc(-c3noc(C4CC4)n3)cc2)CC1` (stereo not drawn), the RP-LC retention time amounted to 789 s.
In turn, `O=C(Cn1c(=O)c2cc(-c3cccs3)nn2c2ncccc21)Nc1ccc(F)cc1F` registered an RP-LC retention time of 872 s.
On to `O=C(NC1CCCC1)N1CCN(Cc2nc3cc(C(=O)N4CCCCC4)ccc3o2)CC1`, for which the RP-LC retention time turned out to be 644 s.
In the case of `Cn1c(=O)c2c(ncn2CC(=O)N2CCCC(c3nc(C4CCOCC4)no3)C2)n(C)c1=O` (stereo not drawn), the RP-LC retention time is 613 s.
`O=S(=O)(c1ccc(-c2noc(-c3cccc(Br)c3)n2)cc1)N1CCOCC1`: the RP-LC retention time stood at 1190 s.
With `CCn1cc(Br)c(C(=O)Nc2ccc(F)c(Cl)c2)n1`, the RP-LC retention time came out at 1020 s.
`CCOC(=O)Cc1c(C)nc2c(-c3cccc(Br)c3)cnn2c1C` had an RP-LC retention time of 1250 s.
`CC(C)(C)NC(=O)NCC(c1ccsc1)N1CCc2ccccc2C1` (stereo not drawn) had an RP-LC retention time of 593 s.
`O=c1n(Cc2cccc(C(F)(F)F)c2)nc2c(S(=O)(=O)N3CCCCCC3)cccn12` gave an RP-LC retention time of 1020 s.
Next, `Cc1ccc(Nc2c(-c3ccc(Cl)cc3)nc3ccc(C)cn23)cc1`: 836 s; `CCOc1cccc(CNS(=O)(=O)c2cc3c(s2)CCN(C(=O)C2CCC2)C3)c1`: 940 s.
Next, `O=C(Cc1csc2nc(-c3ccccc3)cn12)Nc1ccc2c(c1)OCCO2`: 744 s.
`CCN1C(=O)c2cc(S(=O)(=O)NCc3ccccc3F)ccc2Oc2cccnc21` yielded an RP-LC retention time of 1010 s.
Under `COc1ccc(NC(=O)N2CCCN(C3CCN(CC4CC4)C3=O)CC2)cc1Cl` (stereo not drawn) stands 569 s; under `COc1nn(C)cc1C(=O)Nc1nnc(C2CC(=O)N(c3ccccc3)C2)o1` (stereo not drawn), 610 s; under `CCCc1ccc(S(=O)(=O)N2CCC3(CC2)NCCN=C3NCc2ccccc2OC)cc1`, 836 s.
`Nc1cc(C2CCN(C(=O)c3ccc(F)cc3)CC2)no1`: the RP-LC retention time was 675 s.
`Cc1ccc(NC(=O)Cn2c(C)cc(-c3nnc(C)o3)c2C)c(Cl)c1` came in with an RP-LC retention time of 835 s.
